Each structure is given as a SMILES string. *1 amine or outer side, *2 acyl side, *3 side chain or, on linkers, in order; H or OH if unused. Where a SMILES comes first, the peptide text is derived from it. Side-chain parts run from the residue outwards. [ ]: non-standard residue; d: D form. The star is where a group is joined. C20 diacid = O=C(O)CCCCCCCCCCCCCCCCCCC(=O)*; αMePhe(2-F) = C[C@](N)(Cc1ccccc1F)C(=O)O; γGlu = O=C(O)[C@H](CCC(=O)[*:2])N[*:1]; 4Pal = N[C@@H](Cc1ccncc1)C(=O)O; αMeL = CC(C)C[C@](C)(N)C(=O)O; Orn = NCCC[C@H](N)C(=O)O; AEEA = NCCOCCOCC(=O)O; Aib = CC(C)(N)C(=O)O

The term Ki denotes a measure of affinity in units of concentration, obtained from inhibition or displacement.

T1 sequence (P43220 24-463): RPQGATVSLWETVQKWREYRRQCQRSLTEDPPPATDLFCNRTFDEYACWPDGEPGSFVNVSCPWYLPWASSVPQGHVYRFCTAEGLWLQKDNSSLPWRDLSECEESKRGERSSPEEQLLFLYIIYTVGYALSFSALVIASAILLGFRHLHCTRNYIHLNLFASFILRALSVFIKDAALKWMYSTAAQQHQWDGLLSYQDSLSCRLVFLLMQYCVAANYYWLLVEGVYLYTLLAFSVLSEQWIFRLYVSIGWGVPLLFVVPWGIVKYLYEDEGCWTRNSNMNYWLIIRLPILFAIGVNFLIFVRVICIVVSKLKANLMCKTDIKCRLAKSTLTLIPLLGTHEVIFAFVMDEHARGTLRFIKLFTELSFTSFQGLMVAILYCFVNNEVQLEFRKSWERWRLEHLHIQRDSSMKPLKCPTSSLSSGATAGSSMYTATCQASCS

This experiment has as its target T1, human GLP-1R (Homo sapiens, UniProt P43220).
T1 construct: expressed in transfected cells; crude membranes
In words: [125I]-GLP-1 binding, SPA with WGA beads, 0.1% bacitracin. To be noted: geometric mean, read-out: hGLP1R Ki. The gist of the method:
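Binding buffer was 25 mM HEPES pH 7.4 with 2.5 mM CaCl2, 1 mM MgCl2, 0.1% (w/v) bacitracin, 0.003% Tween-20 and EDTA-free protease inhibitors. Four-parameter regression gave IC50, converted to Ki (geometric mean, SEM, n independent days).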
`CC[C@H](C)[C@H](NC(=O)[C@H](CO)NC(=O)[C@H](Cc1ccc(O)cc1)NC(=O)[C@H](CC(=O)O)NC(=O)[C@H](CO)NC(=O)[C@@H](NC(=O)[C@](C)(Cc1ccccc1F)NC(=O)[C@@H](NC(=O)CNC(=O)[C@H](CCC(=O)O)NC(=O)C(C)(C)NC(=O)[C@@H](N)Cc1ccc(O)cc1)[C@@H](C)O)[C@@H](C)CC)C(=O)N[C@@H](C)C(=O)N[C@@H](CC(C)C)C(=O)N[C@@H](CC(=O)O)C(=O)N[C@@H](CCCCN)C(=O)N[C@H](C(=O)N[C@@H](Cc1c[nH]cn1)C(=O)N[C@@H](CCC(N)=O)C(=O)NC(C)(C)C(=O)N[C@@H](CC(=O)O)C(=O)N[C@@H](Cc1ccccc1)C(=O)N[C@H](C(=O)N[C@@H](CCC(=O)O)C(=O)N[C@@H](Cc1ccncc1)C(=O)N[C@@H](CCCCNC(=O)COCCOCCNC(=O)COCCOCCNC(=O)CC[C@H](NC(=O)CCCCCCCCCCCCCCCCCCC(=O)O)C(=O)O)C(=O)N[C@@H](CC(C)C)C(=O)N[C@@H](CCC(=O)O)C(=O)N[C@@H](CCC(N)=O)C(=O)NCC(=O)N1CCC[C@H]1C(=O)N[C@@H](CO)C(=O)N[C@@H](CO)C(=O)NCC(=O)N[C@@H](C)C(=O)N1CCC[C@H]1C(=O)N1CCC[C@H]1C(=O)N1CCC[C@H]1C(=O)N[C@@H](CO)C(N)=O)C(C)C)[C@@H](C)CC` [Example 114] (H-Y[Aib]EGT[αMePhe(2-F)]ISDYSIALDKIHQ[Aib]DFVE[4Pal]K([AEEA-AEEA-γGlu-C20 diacid])LEQGPSSGAPPPS-NH2): the Ki is above 0.921 µM.

Take `CC[C@H](C)[C@H](NC(=O)[C@H](CCCCN)NC(=O)[C@H](CC(=O)O)NC(=O)[C@H](CC(C)C)NC(=O)[C@](C)(CC(C)C)NC(=O)[C@@H](NC(=O)[C@H](CO)NC(=O)[C@H](Cc1ccc(O)cc1)NC(=O)[C@H](CC(=O)O)NC(=O)[C@H](CO)NC(=O)[C@@H](NC(=O)[C@H](Cc1ccccc1)NC(=O)[C@@H](NC(=O)CNC(=O)[C@H](CCC(=O)O)NC(=O)C(C)(C)NC(=O)[C@@H](N)Cc1ccc(O)cc1)[C@@H](C)O)[C@@H](C)CC)[C@@H](C)CC)C(=O)N[C@@H](CCCNC(=N)N)C(=O)N[C@@H](CCC(N)=O)C(=O)NC(C)(C)C(=O)N[C@@H](CC(=O)O)C(=O)N[C@@H](Cc1ccccc1)C(=O)N[C@H](C(=O)N[C@@H](CCC(=O)O)C(=O)N[C@@H](Cc1ccc(O)cc1)C(=O)N[C@@H](CCCCNC(=O)COCCOCCNC(=O)COCCOCCNC(=O)CC[C@H](NC(=O)CCCCCCCCCCCCCCCCCCC(=O)O)C(=O)O)C(=O)N[C@@H](CC(C)C)C(=O)N[C@@H](CCC(=O)O)C(=O)NCC(=O)NCC(=O)N1CCC[C@H]1C(=O)N[C@@H](CO)C(=O)N[C@@H](CO)C(=O)NCC(=O)N[C@@H](C)C(=O)N1CCC[C@H]1C(=O)N1CCC[C@H]1C(=O)N1CCC[C@H]1C(=O)N[C@@H](CO)C(N)=O)C(C)C` [Example 115] (H-Y[Aib]EGTFISDYSI[αMeL]LDKIRQ[Aib]DFVEYK([AEEA-AEEA-γGlu-C20 diacid])LEGGPSSGAPPPS-NH2): the inhibition constant Ki was above 0.912 µM.

As for `CC[C@H](C)[C@H](NC(=O)[C@H](CCCN)NC(=O)[C@H](CC(=O)O)NC(=O)[C@H](CC(C)C)NC(=O)[C@](C)(CC(C)C)NC(=O)[C@@H](NC(=O)[C@H](CO)NC(=O)[C@H](Cc1ccc(O)cc1)NC(=O)[C@H](CC(=O)O)NC(=O)[C@H](CO)NC(=O)[C@@H](NC(=O)[C@H](Cc1ccccc1)NC(=O)[C@@H](NC(=O)CNC(=O)[C@H](CCC(=O)O)NC(=O)C(C)(C)NC(=O)[C@@H](N)Cc1ccc(O)cc1)[C@@H](C)O)[C@@H](C)CC)[C@@H](C)CC)C(=O)N[C@@H](CCCNC(=N)N)C(=O)N[C@@H](CCC(N)=O)C(=O)NC(C)(C)C(=O)N[C@@H](CC(=O)O)C(=O)N[C@@H](Cc1ccccc1)C(=O)N[C@H](C(=O)N[C@@H](CCC(=O)O)C(=O)N[C@@H](Cc1ccc(O)cc1)C(=O)N[C@@H](CCCCNC(=O)COCCOCCNC(=O)COCCOCCNC(=O)CC[C@H](NC(=O)CCCCCCCCCCCCCCCCCCC(=O)O)C(=O)O)C(=O)N[C@@H](CC(C)C)C(=O)N[C@@H](CCC(=O)O)C(=O)NCC(=O)NCC(=O)N1CCC[C@H]1C(=O)N[C@@H](CO)C(=O)N[C@@H](CO)C(=O)NCC(=O)N[C@@H](C)C(=O)N1CCC[C@H]1C(=O)N1CCC[C@H]1C(=O)N1CCC[C@H]1C(=O)N[C@@H](CO)C(N)=O)C(C)C` [Example 116] (H-Y[Aib]EGTFISDYSI[αMeL]LD[Orn]IRQ[Aib]DFVEYK([AEEA-AEEA-γGlu-C20 diacid])LEGGPSSGAPPPS-NH2), the Ki was above 0.912 µM.

Turning to `CC[C@H](C)[C@H](NC(=O)[C@H](CCCCN)NC(=O)[C@H](CC(=O)O)NC(=O)[C@H](CC(C)C)NC(=O)[C@](C)(CC(C)C)NC(=O)[C@@H](NC(=O)[C@H](CO)NC(=O)[C@H](Cc1ccc(O)cc1)NC(=O)[C@H](CC(=O)O)NC(=O)[C@H](CO)NC(=O)[C@@H](NC(=O)[C@H](Cc1ccccc1)NC(=O)[C@@H](NC(=O)CNC(=O)[C@H](CCC(=O)O)NC(=O)C(C)(C)NC(=O)[C@@H](N)Cc1ccc(O)cc1)[C@@H](C)O)[C@@H](C)CC)[C@@H](C)CC)C(=O)N[C@@H](Cc1c[nH]cn1)C(=O)N[C@@H](CCC(N)=O)C(=O)NC(C)(C)C(=O)N[C@@H](CC(=O)O)C(=O)N[C@@H](Cc1ccccc1)C(=O)N[C@H](C(=O)N[C@@H](CCC(=O)O)C(=O)N[C@@H](Cc1ccc(O)cc1)C(=O)N[C@@H](CCCCNC(=O)COCCOCCNC(=O)COCCOCCNC(=O)CC[C@H](NC(=O)CCCCCCCCCCCCCCCCCCC(=O)O)C(=O)O)C(=O)N[C@@H](CC(C)C)C(=O)N[C@@H](CCC(=O)O)C(=O)N[C@@H](C)C(=O)NCC(=O)N1CCC[C@H]1C(=O)N[C@@H](CO)C(=O)N[C@@H](CO)C(=O)NCC(=O)N[C@@H](C)C(=O)N1CCC[C@H]1C(=O)N1CCC[C@H]1C(=O)N1CCC[C@H]1C(=O)N[C@@H](CO)C(N)=O)C(C)C` [Example 117] (H-Y[Aib]EGTFISDYSI[αMeL]LDKIHQ[Aib]DFVEYK([AEEA-AEEA-γGlu-C20 diacid])LEAGPSSGAPPPS-NH2), the inhibition constant (Ki) was found to be 0.591 µM.

Regarding `CC[C@H](C)[C@H](NC(=O)[C@H](CO)NC(=O)[C@H](Cc1ccc(O)cc1)NC(=O)[C@H](CC(=O)O)NC(=O)[C@H](CO)NC(=O)[C@@H](NC(=O)[C@](C)(Cc1ccccc1F)NC(=O)[C@@H](NC(=O)CNC(=O)[C@H](CCC(=O)O)NC(=O)C(C)(C)NC(=O)[C@@H](N)Cc1ccc(O)cc1)[C@@H](C)O)[C@@H](C)CC)C(=O)N[C@@H](CC(C)C)C(=O)N[C@@H](CC(C)C)C(=O)N[C@@H](CC(=O)O)C(=O)N[C@@H](CCCCN)C(=O)N[C@H](C(=O)N[C@@H](Cc1c[nH]cn1)C(=O)N[C@@H](CCC(N)=O)C(=O)NC(C)(C)C(=O)N[C@@H](CC(=O)O)C(=O)N[C@@H](Cc1ccccc1)C(=O)N[C@H](C(=O)N[C@@H](CCC(=O)O)C(=O)N[C@@H](Cc1ccncc1)C(=O)N[C@@H](CCCCNC(=O)COCCOCCNC(=O)COCCOCCNC(=O)CC[C@H](NC(=O)CCCCCCCCCCCCCCCCCCC(=O)O)C(=O)O)C(=O)N[C@@H](CC(C)C)C(=O)N[C@@H](CCC(=O)O)C(=O)NCC(=O)NCC(=O)N1CCC[C@H]1C(=O)N[C@@H](CO)C(=O)N[C@@H](CO)C(=O)NCC(=O)N[C@@H](C)C(=O)N1CCC[C@H]1C(=O)N1CCC[C@H]1C(=O)N1CCC[C@H]1C(=O)N[C@@H](CO)C(N)=O)C(C)C)[C@@H](C)CC` [Example 119] (H-Y[Aib]EGT[αMePhe(2-F)]ISDYSILLDKIHQ[Aib]DFVE[4Pal]K([AEEA-AEEA-γGlu-C20 diacid])LEGGPSSGAPPPS-NH2), the inhibition constant Ki was found to be 0.723 µM.

With `CC[C@H](C)[C@H](NC(=O)[C@H](CO)NC(=O)[C@H](Cc1ccc(O)cc1)NC(=O)[C@H](CC(=O)O)NC(=O)[C@H](CO)NC(=O)[C@@H](NC(=O)[C@](C)(Cc1ccccc1F)NC(=O)[C@@H](NC(=O)CNC(=O)[C@H](CCC(=O)O)NC(=O)C(C)(C)NC(=O)[C@@H](N)Cc1ccc(O)cc1)[C@@H](C)O)[C@@H](C)CC)C(=O)N[C@@H](CC(C)C)C(=O)N[C@@H](CC(C)C)C(=O)N[C@@H](CC(=O)O)C(=O)N[C@@H](CCCCN)C(=O)N[C@H](C(=O)N[C@@H](Cc1c[nH]cn1)C(=O)N[C@@H](CCC(N)=O)C(=O)NC(C)(C)C(=O)N[C@@H](CC(=O)O)C(=O)N[C@@H](Cc1ccccc1)C(=O)N[C@H](C(=O)N[C@@H](CCC(=O)O)C(=O)N[C@@H](Cc1ccncc1)C(=O)N[C@@H](CCCCNC(=O)COCCOCCNC(=O)COCCOCCNC(=O)CC[C@H](NC(=O)CCCCCCCCCCCCCCCCCCC(=O)O)C(=O)O)C(=O)N[C@@H](CC(C)C)C(=O)N[C@@H](CCC(=O)O)C(=O)N[C@@H](C)C(=O)NCC(=O)N1CCC[C@H]1C(=O)N[C@@H](CO)C(=O)N[C@@H](CO)C(=O)NCC(=O)N[C@@H](C)C(=O)N1CCC[C@H]1C(=O)N1CCC[C@H]1C(=O)N1CCC[C@H]1C(=O)N[C@@H](CO)C(N)=O)C(C)C)[C@@H](C)CC` [Example 120] (H-Y[Aib]EGT[αMePhe(2-F)]ISDYSILLDKIHQ[Aib]DFVE[4Pal]K([AEEA-AEEA-γGlu-C20 diacid])LEAGPSSGAPPPS-NH2), the Ki is above 0.912 µM.

As to `CC[C@H](C)[C@H](NC(=O)[C@H](CO)NC(=O)[C@H](Cc1ccc(O)cc1)NC(=O)[C@H](CC(=O)O)NC(=O)[C@H](CO)NC(=O)[C@@H](NC(=O)[C@](C)(Cc1ccccc1F)NC(=O)[C@@H](NC(=O)CNC(=O)[C@H](CCC(=O)O)NC(=O)C(C)(C)NC(=O)[C@@H](N)Cc1ccc(O)cc1)[C@@H](C)O)[C@@H](C)CC)C(=O)N[C@@H](CC(C)C)C(=O)N[C@@H](CC(C)C)C(=O)N[C@@H](CC(=O)O)C(=O)N[C@@H](CCCCN)C(=O)N[C@H](C(=O)N[C@@H](Cc1c[nH]cn1)C(=O)N[C@@H](CCC(N)=O)C(=O)NC(C)(C)C(=O)N[C@@H](CC(=O)O)C(=O)N[C@@H](Cc1ccccc1)C(=O)N[C@H](C(=O)N[C@@H](CCC(=O)O)C(=O)N[C@@H](Cc1ccncc1)C(=O)N[C@@H](CCCCNC(=O)COCCOCCNC(=O)COCCOCCNC(=O)CC[C@H](NC(=O)CCCCCCCCCCCCCCCCCCC(=O)O)C(=O)O)C(=O)N[C@@H](CC(C)C)C(=O)N[C@@H](CCC(=O)O)C(=O)N[C@@H](CCC(N)=O)C(=O)NCC(=O)N1CCC[C@H]1C(=O)N[C@@H](CO)C(=O)N[C@@H](CO)C(=O)NCC(=O)N[C@@H](C)C(=O)N1CCC[C@H]1C(=O)N1CCC[C@H]1C(=O)N1CCC[C@H]1C(=O)N[C@@H](CO)C(N)=O)C(C)C)[C@@H](C)CC` [Example 121] (H-Y[Aib]EGT[αMePhe(2-F)]ISDYSILLDKIHQ[Aib]DFVE[4Pal]K([AEEA-AEEA-γGlu-C20 diacid])LEQGPSSGAPPPS-NH2), the Ki was above 0.912 µM.

For the origin of these results see patent publication US12723063B2, “GIPR-agonist compounds” (Eli Lilly and Company, priority 2019, dated 2026).
